Article PMC5575254, “An allosteric ligand-binding site in the extracellular cap of K2P channels” (Nature Communications, 2017)

What was measured:
mutant TRAAK channels [1] = test system: T1, mutant TRAAK channels; experiment: Whole-cell voltage clamp of mutant TRAAK channels; type: cell-based, human; conditions: 100 μM, L39W mutant
T1 construct: expressed in transfected cells; host or cells: CHO cells, transient transfection
Excerpt: (§1) cDNA of the human TREK-1, TREK-2 and TRAAK channels were subcloned into the pEGFPN1 expression vector (Invitrogen), respectively. Mutations were introduced into TREK-1 or TRAAK by PCR using the QuickChange XL sitedirected mutagenesis kit (Agilent Technologies) and were subsequently confirmed by DNA sequencing.
(§2) Chinese hamster ovary (CHO) cells were provided by the Cell Bank of Chinese Academy of Sciences (Shanghai, China). CHO cells were maintained in DMEM/F12 (Gibco) supplemented with 10% fetal bovine serum (Gibco) and 100 μg ml^−1 penicillin-streptomycin (Cellgro) in a humidified incubator at 37 °C (5% CO2). For electrophysiology experiments, cells plated in 35 mm tissue culture dishes (Corning Incorporated) were transiently transfected with the plasmids using PolyJet™ reagent (SignaGen) according to the manufacturer’s instructions. Primers used in this study are listed in Supplementary Table 4.
(§3) All electrophysiological recordings were obtained using patch-clamp recordings in two different configurations: (1) whole cell for macroscopic current dose–response curves; and (2) outside-out and inside-out for macroscopic currents recordings.
(§4) All patch-clamp recordings were conducted 36–96 h after transfection with an Axopatch-200B amplifier (Molecular Devices) at room temperature (23–25 °C). […]

mutant TRAAK channels [2] = experiment: Whole-cell voltage clamp of mutant TRAAK channels; type: cell-based, human; conditions: A35Q, E38T and V42Q mutants
Excerpt: as §1, §2, §3, §4

TREK-2 = molecular target: T2, TREK-2 (Homo sapiens, UniProt P57789); experiment: Whole-cell voltage clamp of CHO cells expressing TREK-2; type: cell-based; conditions: mean ± s.e.m
T2 construct: expressed in transfected cells; host or cells: CHO cells, transient transfection
T2 sequence (P57789 1-538): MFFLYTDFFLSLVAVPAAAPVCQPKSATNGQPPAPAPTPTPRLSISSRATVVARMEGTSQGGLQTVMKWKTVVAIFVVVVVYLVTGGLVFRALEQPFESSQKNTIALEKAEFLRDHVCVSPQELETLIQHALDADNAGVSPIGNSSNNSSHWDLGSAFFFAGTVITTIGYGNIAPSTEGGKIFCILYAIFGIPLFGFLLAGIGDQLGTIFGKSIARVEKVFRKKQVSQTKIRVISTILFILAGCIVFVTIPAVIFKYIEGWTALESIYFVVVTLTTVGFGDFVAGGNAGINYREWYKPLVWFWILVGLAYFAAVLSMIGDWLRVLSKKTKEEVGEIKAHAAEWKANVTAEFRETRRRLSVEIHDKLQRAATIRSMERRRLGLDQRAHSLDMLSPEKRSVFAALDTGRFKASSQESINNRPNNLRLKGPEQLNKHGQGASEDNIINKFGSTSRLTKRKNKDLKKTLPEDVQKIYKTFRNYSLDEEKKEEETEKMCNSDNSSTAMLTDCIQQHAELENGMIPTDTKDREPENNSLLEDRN
Excerpt: as §1, §2, §3
(§5) All patch-clamp recordings were conducted 36–96 h after transfection with an Axopatch-200B amplifier (Molecular Devices) at room temperature (23–25 °C). The microelectrodes fashioned from 1.5 mm thin-walled borosilicate glass with filament were pulled from Flaming/Brown type micropipette puller (P-97; SUTTER INSTRUMENT) with the resistances of 3–7 MΩ (whole cell) or 7–15 MΩ (outside-out) when filled with a solution containing (in mM): 140 KCl, 2 MgCl2, 10 EGTA, 1 CaCl2, 10 HEPES (pH 7.3, adjusted with KOH). External solution contained (in mM): 150 NaCl, 5 KCl, 0.5 CaCl2, 1.2 MgCl2, 10 HEPES (pH 7.3, adjusted with NaOH). The current signals were filtered at 1 kHz and digitized at a 10 kHz sampling frequency by using DigiData 1440 A.
(§6) Data of whole-cell voltage clamp experiments were fitted using doseResp function. The half inhibition concentrations were derived from fits of the dose–response curves to the function:1 I/I0=A1+A2-A1/1+10^logx0-xP, where I 0 and I are current amplitudes before and after application of inhibitors; A 1 and A 2 are constants between 0 and 1; x is the concentration of inhibitor; x o is the concentration when 50% inhibition was reached (IC50), P is the Hill constant.

mice = experiment: Tail suspension test; type: in vivo, Male C57BL/6 mice; conditions: chronic i.p. administration 10 days; 0.5, 1, 5 mg kg-1
Protocol: Male C57BL/6 mice, aged 8 weeks (weighing 18–20 g) were used for acute and chronic drug administration and behavioral tests. The mice were housed four per cage under a 12-h light–dark cycle. Mice were raised under stable conditions with food and water ad libitum. All animal studies and experimental procedures were approved by the Animal Care Committees of the Shanghai Institute of Materia Medica, Chinese Academy of Sciences, and experiments were carried out in accordance with EU Directive 2010/63/EU on the protection of animals used for scientific purposes. […] The mice were removed to a sound-attenuating testing room 3–4 h before testing. The behavioral tests were carried out 30 min and 24 h after acute and chronic drugs administration, respectively.
Mice were secured on the shelf by using adhesive tape placed approximately 1 cm from the tip of the tail. The mice were then suspended by placing the other end of the tape on the edge of shelf at the height of 80 cm above the floor. Six-minute session was performed for each animal. A blinded experiment was conducted to record the amount of time spent immobile during the last 4 min of the testing period; the first 2 min were excluded. Because most mice are very active at the beginning of the test, and the potential effects of the treatment can be minimized during the first 2 min. […]

TREK-1 channel = molecular target: T3, TREK-1 channel (Homo sapiens, UniProt O95069); experiment: Whole-cell voltage clamp of CHO cells transiently transfected with TREK-1; type: cell-based
T3 construct: expressed in transfected cells; host or cells: CHO cells, transient transfection
T3 sequence (O95069 1-411 isoform O95069-2): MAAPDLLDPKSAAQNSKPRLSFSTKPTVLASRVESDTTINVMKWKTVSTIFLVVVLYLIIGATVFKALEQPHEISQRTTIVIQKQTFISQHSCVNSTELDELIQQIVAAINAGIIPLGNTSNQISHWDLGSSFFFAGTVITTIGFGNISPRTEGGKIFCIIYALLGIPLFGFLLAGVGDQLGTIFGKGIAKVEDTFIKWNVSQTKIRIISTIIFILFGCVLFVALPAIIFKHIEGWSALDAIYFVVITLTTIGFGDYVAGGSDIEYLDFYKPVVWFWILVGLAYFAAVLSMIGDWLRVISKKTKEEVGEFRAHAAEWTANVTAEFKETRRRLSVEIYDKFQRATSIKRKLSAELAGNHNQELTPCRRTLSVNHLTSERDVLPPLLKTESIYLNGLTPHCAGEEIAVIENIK
Excerpt: as §1, §2, §3, §5, §6

IC50 (TREK-2): 5.2 ± 1.9 µM
effect on TREK-1 current (TREK-1 channel; perfusion with 10 μM): pronounced decreases in current
IC50 (TREK-1 channel; whole-cell, CHO cells, WT TREK-1, mean ± s.e.m, read-out: half-maximal inhibition concentration (IC50), TREK-1): 4.9 ± 0.6 µM
SMILES: CS(=O)(=O)N(CC(=O)N1CCc2ccccc2C1)c1ccc(Cl)cc1 [TKDC, N-(4-cholorphenyl)-N-(2-(3,4-dihydrosioquinolin-2(1H)-yl)-2-oxoethyl)methanesulfonamide]
inhibitory effect on L39W TRAAK mutant versus wild type (mutant TRAAK channels [1]): weaker than the TKDC-induced
TKDC-induced inhibition of mutant TRAAK versus WT (mutant TRAAK channels [2]): enhanced inhibition
immobility in the tail suspension test (mice): dose-dependent decrease in immobility
